As a reminder, the IC50 is the concentration that gives 50% inhibition. A high value points to weaker potency.

Here are results for 14 molecules from patent US5135932A, “2-hydroxypropylamino-alkyl-benzimidazoly-5-yl derivatives and their use in the treatment of heart disease” (Dr. Karl Thomae GmbH, priority 1989, dated 1992).

Test [1] can be described thus: Antiadrenergic activity: shift of isoprenalin dose-activity curves in guinea-pigs (pA2). It counts as in vivo, guinea-pig. Conditions: averages from 2 to 3 tests; for pA2 heart rate: against heart rate-increasing activity of isoprenalin; for pA2 inotropia: against inotropic activity of isoprenalin (LV-dP/dtmax). How it is done:
(§1) Cardiotonic effect with antiadrenergic activity
(§2) Guinea-pigs (Dunkin-Hartley-Pirbright, male, 450-600 g) were anaesthetised with hexobarbital-sodium (150 mg/kg i.p.). After the animals had become unconscious, a tracheal cannula was inserted and the animals were pitched (van Meel, J. Pharmacol. Methods 31 (1): 1-11 (1985)). The animals were then immediately artificially respirated using a breathing pump. The left ventricular pressure (LVP) was measured with a Millar PR-249 catheter-tip manometer inserted into the left ventricle through the left carotid artery. This pressure signal was differentiated electronically (LV-dP/dtmax) and used as a parameter for inotropia. The arterial blood pressure was recorded by a cannula in the right carotid artery using a Bell & Howell pressure recorder. The heart rate was also measured. The substances were administered through a cannula in the jugular vein.
(§3) The test substances were administered to three animals cumulatively in four doses (0.1 to 3 mg/kg) and the effects on blood pressure, heart rate and LV-dP/dtmax were measured. Three minutes after the last dose of the test substance, isoprenalin was administered intravenously in increasing doses. In this way, a cumulative dose-activity correlation was obtained for isoprenalin in the presence of the test substance. The parameters measured were the increase in heart rate and the LV-dP/dtmax. These dose-activity curves were compared with standard curves for isoprenalin without the test substances. The shift to the right of the dose-activity curves for isoprenalin brought about by the test substances were determined graphically and corresponding pA2 values for the test substances were calculated. (see Tenakin in "Pharmacologic Analysis of Drug Receptor Interaction", Rawen Press 1987, pages 211-212).
(§4) The Table which follows contains the averages from 2 to 3 tests: […]

Test [2] deals with Guinea-pigs (Dunkin-Hartley-Pirbright, male). The test can be described thus: Cardiotonic effect: LV-dP/dtmax and heart rate in anaesthetised guinea-pigs. It counts as in vivo, guinea-pig. Conditions: after a dose of 3 mg/kg i.v., averages from 2 to 3 tests; for change in vivo at 3 mg/kg: Cavia porcellus, iv, read-out: Effects on LV-dP/dtmax % increase. How it is done: as §1, §2, §3, §4

The target of test [3] is T1, β1 adreno receptor (rat hearts) (Rattus norvegicus, UniProt P18090).
T1 construct: receptor preparations from rat hearts (β1); from tissue; host or cells: rat heart membrane preparation
The test can be described thus: Affinity for β-adreno receptors: inhibition of 3H-CGP 12177 binding, receptor preparations from rat hearts (β1). To be noted: 200 pM 3H-CGP 12177. How it is done:
(§5) 1. Affinity for β-adreno recectors
(§6) The inhibitory effect on the binding of ^3 H-CGP 12177 was tested on receptor preparations from rat hearts (β1) and rat lungs (β2). The binding assay was carried out with some modifications according to the method of Dammgen et al. (Drug. Res. 35: 383-390 (1985)). The incubation mixture contained aliquots of the membrane preparation in Tris buffer, increasing concentrations of the potential antagonist as well as 200 pM ^3 H-CGP 12177. The bound and free radioligands were separated after the incubation period by rapid filtration through glass fibre filters. The filter-bound radioactivity was determined in a β counter with a counting yield of about 52%. The non-specific binding was determined in the presence of 10^-5 M propranolol.

Test [4] has as its target T2, β2 adreno receptor (rat lungs) (Rattus norvegicus, UniProt P10608).
T2 construct: rat lungs (β2); from tissue; host or cells: rat lung membrane preparation
The test can be described thus: Affinity for β-adreno receptors: inhibition of 3H-CGP 12177 binding, receptor preparations from rat lungs (β2). Conditions: 200 pM 3H-CGP 12177. On the procedure: as §5, §6

A value given as a limit tells only on which side of the number the result lay.

T2 sequence (P10608 whole entry): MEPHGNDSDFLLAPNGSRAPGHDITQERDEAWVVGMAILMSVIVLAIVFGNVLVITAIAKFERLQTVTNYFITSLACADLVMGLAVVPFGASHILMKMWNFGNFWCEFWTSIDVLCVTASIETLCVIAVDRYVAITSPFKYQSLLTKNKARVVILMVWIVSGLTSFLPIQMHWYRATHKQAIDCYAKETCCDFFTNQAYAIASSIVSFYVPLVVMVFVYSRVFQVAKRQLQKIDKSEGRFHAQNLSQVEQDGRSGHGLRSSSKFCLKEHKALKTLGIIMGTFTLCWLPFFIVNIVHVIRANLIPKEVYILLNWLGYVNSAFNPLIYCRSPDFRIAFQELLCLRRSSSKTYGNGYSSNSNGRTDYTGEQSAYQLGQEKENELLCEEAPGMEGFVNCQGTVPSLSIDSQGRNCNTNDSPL
T1 sequence (P18090 whole entry): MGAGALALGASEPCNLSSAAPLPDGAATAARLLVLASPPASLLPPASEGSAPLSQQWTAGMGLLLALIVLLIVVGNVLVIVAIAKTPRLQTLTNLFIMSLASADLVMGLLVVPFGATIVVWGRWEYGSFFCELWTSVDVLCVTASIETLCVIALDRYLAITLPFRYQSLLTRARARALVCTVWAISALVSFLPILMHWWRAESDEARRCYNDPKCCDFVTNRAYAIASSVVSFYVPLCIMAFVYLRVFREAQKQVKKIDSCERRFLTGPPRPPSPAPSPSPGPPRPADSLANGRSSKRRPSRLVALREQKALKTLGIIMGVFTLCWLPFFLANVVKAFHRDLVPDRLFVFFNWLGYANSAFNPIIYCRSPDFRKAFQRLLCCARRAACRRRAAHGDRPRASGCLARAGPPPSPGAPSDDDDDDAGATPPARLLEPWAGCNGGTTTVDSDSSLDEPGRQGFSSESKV

`O=C1CCC(c2ccc3c(c2)ncn3CCNCC(O)COc2ccc(CCOCC3CCC3)cc2)=NN1` (centres unmarked) [Substance A, 6-[1-[2-[3-(4-(2-cyclobutylmethoxy-ethyl)phenoxy)-2-hydroxy-propylamino]ethyl]benzimidazol-5-yl]-4,5-dihydro-3(2H)-pyridazinone]: in test [1], the pA2 heart rate was 8.20 and the pA2 inotropia turned out to be 6.30. Moreover, in test [2], the change in vivo at 3 mg/kg was found to be 50% and the “Effect on heart rate in beats per minute” value is on record as -23 beats per minute. In test [3], this molecule gave an IC50 of 26 nM. Moreover, in test [4], the IC50 is 940 nM.
As to `O=C1CCC(c2ccc3c(c2)ncn3CCNCC(O)COc2ccc(CCOCC3CC3)cc2)=NN1` (centres unmarked) [Substance B, 6-[1-[2-[3-(4-(2-cyclopropylmethoxy-ethyl)phenoxy)-2-hydroxy-propylamino]ethyl]benzimidazol-5-yl]-4,5-dihydro-3(2H)-pyridazinone], in test [1], the pA2 heart rate came to 6.95 and the pA2 inotropia was 6.83. In test [2], the change in vivo at 3 mg/kg stood at 51% and the “Effect on heart rate in beats per minute” value is -47 beats per minute. Also, the IC50 in test [3] amounted to 34 nM. This molecule showed a half-inhibitory concentration (IC50) in test [4] of 2300 nM.
Turning to `O=C1CCC(c2ccc(OCCNCC(O)COc3ccc(CCOCC4CC4)cc3)cc2)=NN1` (centres unmarked) [Substance C, 6-[4-[2-[3-(4-(2-cyclopropylmethoxy-ethyl)phenoxy)-2-hydroxy-propylamino]ethoxy]phenyl]-4,5-dihydro-3(2H)-pyridazinone], in test [1], the pA2 heart rate is 7.22 and the pA2 inotropia is 6.76. In addition, in test [2], the change in vivo at 3 mg/kg amounted to 25% and the “Effect on heart rate in beats per minute” value is listed as -51 beats per minute. The molecule also yielded an IC50 in test [3] of 29 nM. The molecule further had an IC50 in test [4] of 1200 nM.
Turning to `O=c1ccc(-c2ccc(OCCNCC(O)COc3ccc(CCOCC4CC4)cc3)cc2)n[nH]1` (centres unmarked) [Substance D, 6-[4-[2-[3-(4-(2-cyclopropylmethoxyethyl)phenoxy)-2-hydroxy-propylamino]ethoxy]phenyl]-3(2H)-pyridazinone], in test [1], the pA2 heart rate stood at 7.24 and the pA2 inotropia is on record as 6.67. In test [2], the change in vivo at 3 mg/kg was 51% and the “Effect on heart rate in beats per minute” value is given as -49 beats per minute. In addition, the half-maximal inhibitory concentration (IC50) in test [3] was found to be 22 nM. Also, the IC50 in test [4] worked out at 1000 nM.
In the case of `O=C1CCC(c2ccc(OCCNCC(O)COc3ccc(CCOCC4CCC4)cc3)cc2)=NN1` (centres unmarked) [Substance E, 6-[4-[2-[3-(4-(2-cyclobutylmethoxy-ethyl)phenoxy)-2-hydroxy-propylamino]ethoxy]phenyl]-4,5-dihydro-3(2H)-pyridazinone], in test [1], the pA2 heart rate was determined as 7.23 and the pA2 inotropia was determined as 6.19. Further, in test [2], the change in vivo at 3 mg/kg was 49% and the “Effect on heart rate in beats per minute” value is recorded as -71 beats per minute. Also, the IC50 in test [3] was determined as 15 nM. This molecule also yielded an IC50 in test [4] of 1100 nM.
`CC(C)OCCOCc1ccc(OCC(O)CNCCOc2ccc(C3=NNC(=O)CC3)cc2)cc1` (centres unmarked) [Substance F, 6-[4-[2-[3-(4-((2-isopropoxyethoxy)methyl)phenoxy)-2-hydroxy-propylamino]ethoxy]phenyl]-4,5-dihydro-3(2H)-pyridazinone]: in test [1], the pA2 heart rate is 6.96 and the pA2 inotropia was 7.14. Besides, in test [2], the change in vivo at 3 mg/kg was 37% and the “Effect on heart rate in beats per minute” value is -94 beats per minute. This molecule also came in with an IC50 in test [3] of 24 nM. The molecule further showed a concentration for half-maximal inhibition (IC50) in test [4] of 7200 nM.
Take `CC(C)OCCOCc1ccc(OCC(O)CNCCOc2ccc(-c3ccc(=O)[nH]n3)cc2)cc1` (centres unmarked) [Substance G, 6-[4-[2-[3-(4-(2-isopropoxyethoxymethyl)phenoxy)-2-hydroxypropylamino]ethoxy]phenyl]-3(2H)-pyridazinone]: in test [1], the pA2 heart rate turned out to be 6.38 and the pA2 inotropia worked out at 6.32. Moreover, in test [2], the change in vivo at 3 mg/kg was 38% and the “Effect on heart rate in beats per minute” value was -36 beats per minute. Further, in test [3], the IC50 stood at 53 nM. For the same molecule, the IC50 in test [4] came out at 4400 nM.
Turning to `CC(C)COCCc1ccc(OCC(O)CNCCCn2cnc3cc(C4=NNC(=O)CC4)ccc32)cc1` (centres unmarked) [Substance H], in test [1], the pA2 heart rate is listed as greater than 9.0 and the pA2 inotropia came to 8.28. Further, in test [2], the change in vivo at 3 mg/kg was 10% and the “Effect on heart rate in beats per minute” value was -90 beats per minute. This molecule also yielded an IC50 in test [3] of 10 nM. In addition, the IC50 in test [4] came out at 19 nM.
For the molecule `CC(C)COCCc1ccc(OCC(O)CNC(C)(C)Cn2cnc3cc(C4=NNC(=O)CC4)ccc32)cc1` (centres unmarked) [Substance I, 6-[1-[2-[3-(4-(2-isobutoxyethyl)phenoxy)-2-hydroxypropylamino]-2,2-dimethyl-ethyl]benzimidazol-5-yl]-4,5-dihydro-3(2H)-pyridazinone], in test [1], the pA2 heart rate came to 7.89 and the pA2 inotropia is 7.17. Moreover, in test [2], the change in vivo at 3 mg/kg stood at 58% and the “Effect on heart rate in beats per minute” value is recorded as -59 beats per minute. In addition, in test [3], the 50% inhibitory concentration (IC50) worked out at 12 nM. For the same molecule, in test [4], the IC50 is 65 nM.
For the molecule `CC(C)OCCOCc1ccc(OCC(O)CNCCCOc2ccc(C3=NNC(=O)CC3)cc2Cl)cc1` (centres unmarked) [Substance K, 6-[4-[3-[3-(4-(2-isopropoxyethoxy-methyl)phenoxy)-2-hydroxy-propylamino]propoxy]-3-chloro-phenyl]-4,5-dihydro-3(2H)-pyridazinone], in test [1], the pA2 heart rate is 7.52 and the pA2 inotropia turned out to be 6.56. In test [2], the change in vivo at 3 mg/kg amounted to 11% and the “Effect on heart rate in beats per minute” value is recorded as -121 beats per minute. The IC50 in test [3] was 10 nM. Also, in test [4], the IC50 was found to be 350 nM.
For `CC(C)OCCOCc1ccc(OCC(O)CNCCOc2ccc(C3=NNC(=O)CC3)cc2Cl)cc1` (centres unmarked) [Substance L, 6-[4-[2-[3-(4-(2-isopropoxyethoxy-methyl)phenoxy)-2-hydroxy-propylamino]ethoxy]-3-chloro-phenyl]-4,5-dihydro-3(2H)-pyridazinone], in test [1], the pA2 heart rate came to 6.77 and the pA2 inotropia is given as 6.23. In test [2], the change in vivo at 3 mg/kg came to 66% and the “Effect on heart rate in beats per minute” value is listed as -51 beats per minute. This molecule gave a concentration for half-maximal inhibition (IC50) in test [3] of 7.6 nM. Moreover, the IC50 in test [4] came out at 600 nM.
Turning to `Cc1cc(C2=NNC(=O)CC2)ccc1OCCNCC(O)COc1ccc(CCOCC2CC2)cc1` (centres unmarked) [Substance M, 6-[4-[2-[3-(4-(2-cyclopropylmethoxy-ethyl)phenoxy)-2-hydroxy-propylamino]ethoxy]-3-methyl-phenyl]-4,5-dihydro-3(2H)-pyridazinone], in test [1], the pA2 heart rate is given as 8.20 and the pA2 inotropia is reported as 7.05. In test [2], the change in vivo at 3 mg/kg stood at 51% and the “Effect on heart rate in beats per minute” value was -64 beats per minute. This molecule registered an IC50 in test [3] of 0.5 nM. The IC50 in test [4] came out at 100 nM.
Take `Cc1cc(C2=NNC(=O)CC2)ccc1OCCNCC(O)COc1ccc(COCCOC(C)C)cc1` (centres unmarked) [Substance N, 6-[4-[2-[3-(4-(2-isopropoxyethoxy-methyl)phenoxy)-2-hydroxy-propylamino]ethoxy]-3-methyl-phenyl]-4,5-dihydro-3(2H)-pyridazinone]: in test [1], the pA2 heart rate is 8.34 and the pA2 inotropia is listed as 7.34. In addition, in test [2], the change in vivo at 3 mg/kg turned out to be 34% and the “Effect on heart rate in beats per minute” value is -94 beats per minute. For the same molecule, in test [3], the IC50 came to 2.6 nM. Moreover, the IC50 in test [4] came to 520 nM.
Consider `Cc1cc(-c2ccc(=O)[nH]n2)ccc1OCCNCC(O)COc1ccc(COCCOC(C)C)cc1` (centres unmarked) [Substance Q, 6-[4-[2-[3-(4-(2-isopropoxyethoxy-methyl)phenoxy)-2-hydroxy-propylamino]ethoxy]-3-methyl-phenyl]-3(2H)-pyridazinone], for which the IC50 in test [3] turned out to be 2 nM; in test [4], 210 nM.
